Measurements as given in patent US10752900B2, “Oligonucleotides for modulating gene expression and uses thereof” (BIOGENERA S.P.A., priority 2012, dated 2020).

Experiments:
MYCN gene = test: QT-PCR, MYCN mRNA in RH30 cells; type: cell-based, human; conditions: Table 6, PNA
Description: For the purpose of assessing the ability of the oligonucleotides of the present invention to modulate the expression of the target genes, their ability to reduce the quantity of messenger RNA was analyzed using the Real-Time PCR technique. For this purpose, use was made of 24-well plates, which were seeded with 5.0×10^4 cells with 0.3 ml of OPTI-MEM (GIBCO BRL) medium, 4% FBS and 2 mM L-glutammine (experiments in triplicate) per well. The cells were incubated for 24 hours at 37° C., in an atmosphere containing 5% CO2 to permit adherence to the base of the wells. Each oligonucleotide analyzed, except for the PNA oligonucleotides, was incubated beforehand with 2 μl of Lipofectamine 2000 (Invitrogen), with 0.3 mL of serum-free OPTI-MEM (GIBCO BRL) medium. For each well, the oligonucleotides were analyzed at the following final concentrations: • the antisense oligonucleotides siRNA and siRNA gapmer (i.e. the oligonucleotides containing one or more monomers of chemically modified nucleic acids at the 3' or 5' end, while in the central portion they have monomers of nucleic acids that have not been modified or have been modified at the level of the phosphodiester bond as a phosphorothioate bond) were used at 200 nM; • the antisense oligonucleotides containing phosphorothioate DNA monomers, the RNA antigene oligonucleotides (agRNA) and the oligonucleotides containing DNA monomers and LNA monomers were used at 10 μM; • the morpholino oligonucleotides were used at a concentration of 1 μM, and • the PNA oligonucleotides were administered at a concentration of 1 μM. The cells were treated with the oligonucleotides, adding FBS up to 4% 6 hours after administration of the same. After 24 hours the total RNA was extracted from each well and purified using the RNeasy Mini Kit (QIAGEN). Assays were performed on 8 cell lines obtained from 5 different human tumours which are correlated with MYCN expression, i.e.: • as a neuroblastoma model use was made of the cell lines Kelly, IMR-32 (where the MYCN gene is amplified and superexpressed) and SKNBE2c and LAN1 (where the MYCN gene is amplified and superexpressed and the p53 gene is mutated); • as a rabdomiosarcoma model use was made of the cell line RH30, where the MYCN gene is amplified and superexpressed; • as a Wilms' tumour model use was made of the cell line WiT49, where the MYCN gene is amplified and superexpressed; • as a retinoblastoma model use was made of the cell line Y79, where the MYCN gene is amplified and superexpressed; and • as a model of small cell lung cancer use was made of the cell line H69 where the MYCN gene is amplified and superexpressed. As a control, use was made of the same cell lines as listed above treated with sterile water instead of oligonucleotides. Each RNA sample was quantified (in duplicate) using a NanoDrop ND-1000 spectrophotometer (NanoDrop Technologies). The first strand of cDNA was produced using the cDNA Synthesis Kit for RT-PCR (Roche). For the cDNA synthesis reaction a total of 1 μg of RNA was used. For the real-time PCR, 10 ng of cDNA in a final volume of 20 μl was used with SYBR Green Master Mix 2× (Applied Biosystems) (3 identical experiments were conducted in triplicate). Two housekeeping genes were used as positive controls: GAPDH and beta-actin (ACTB). The conditions of the QT-PCR reaction were: 10 min at 95° C., 20 sec at 95° C., and 30 sec at 60° C., for 50 cycles. The PNAs having SEQ ID NO: 1-12 were also tested on different cell lines which overexpress MYCN (Kelly, SKNBE2c, RH30, […] 1 and H69). The results are shown in Table 6 and confirm the selectivity and specificity of the inhibition effect of the PNAs on the product of protein translation of the MYCN gene. Chimeric oligonucleotides comprising DNA monomers and LNA monomers and having the MYCN gene as their target were tested in vitro on alveolar rabdomyosarcoma cells (RH30). […]

SKNBE2c = test: Cellular proliferation assay (ATP-Lite), SKNBE2c cells; type: cell-based, human; conditions: Table 6
Description: For the purpose of assessing the gene modulation ability of the oligonucleotides of the present invention, the effect of their administration on cell viability was determined. For this purpose 5×10^3 cells per well were seeded into 96-well cell culture plates (experiments conducted in triplicate) with 100 μl of OPTI-MEM (GIBCO BRL) medium containing 4% FBS and 2 mM of L-glutammine. The PNA oligonucleotides were administered at different concentrations (1 μM-2.5 μM-5 μM-10 μM) in order to observe a dose-effect relationship. The viability of the treated cells was determined at 48, 72, 96 and 168 hours after treatment. Cell viability was assessed by means of an ATP-Lite assay (Luminescence ATP Detection Assay System, PerkinElmer) and is reported as the ratio between the average signal of the treated wells compared to the average value of the wells of untreated control cells. The cells were processed following the instructions provided with the kit. The assays were performed on the same cell lines used to determine the levels of the MYCN gene messenger and listed in the paragraph: Treatments with Oligonucleotides-QT-PCR. The PNAs having SEQ ID NO: 1-12 were also tested on different cell lines which overexpress MYCN (Kelly, SKNBE2c, RH30, […] 1 and H69). The results are shown in Table 6 and confirm the selectivity and specificity of the inhibition effect of the PNAs on the product of protein translation of the MYCN gene.

| Substance | RH30 % mRNA (MYCN gene) | SKNBE2c % cell prol. (SKNBE2c) |
| --- | --- | --- |
| SEQ ID NO: 12: PNA antigene oligonucleotide TGTCTGGACGCGCTGG directed against MYCN (all peptide nucleic acid (PNA)) | 32% | 71% |
| SEQ ID NO: 5: PNA antigene oligonucleotide GCTGGGTGGATGCGGG directed against MYCN (PNA backbone, chemistry not fully specified) | 56% | 64% |
| SEQ ID NO: 2: PNA antigene oligonucleotide GGGTGGATGCGGGGGG directed against MYCN (PNA backbone, chemistry not fully specified) | 74% | 52% |
| SEQ ID NO: 11: PNA antigene oligonucleotide GGGAACTGTGTTGGAG directed against MYCN (PNA backbone, chemistry not fully specified) | 31% | 71% |
| SEQ ID NO: 6: PNA antigene oligonucleotide TGGACGCGCTGGGTGG directed against MYCN (PNA backbone, chemistry not fully specified) | 56% | 57% |
| SEQ ID NO: 9: PNA antigene oligonucleotide CCCTGCAGTCGGCGGG directed against MYCN (all peptide nucleic acid (PNA)) | 50% | 64% |
| SEQ ID NO: 4: PNA antigene oligonucleotide GTCGGCGGGAGGTAAG directed against MYCN (PNA backbone, chemistry not fully specified) | 57% | 59% |
| SEQ ID NO: 8: PNA antigene oligonucleotide GTCTGGACGCGCTGGG directed against MYCN (all peptide nucleic acid (PNA)) | 58% | 56% |
| SEQ ID NO: 10: PNA antigene oligonucleotide CGGCCGCGGGCCGCCA directed against MYCN (PNA backbone, chemistry not fully specified) | 29% | 70% |
| SEQ ID NO: 7: PNA antigene oligonucleotide CGCGCTGGGTGGATGC directed against MYCN (all peptide nucleic acid (PNA)) | 55% | 58% |
| SEQ ID NO: 1: PNA ATGCCGGGCATGATCT against MYCN; subject of patent EP 1618195, control sequence used for comparison (all peptide nucleic acid (PNA)) [reference compound] | 39% | 72% |
| SEQ ID NO: 3: PNA antigene oligonucleotide GATGCGGGGGGCTCCT directed against MYCN (PNA backbone, chemistry not fully specified) | 65% | 53% |
